Tests used:
Assay type in all cases: functional
[1] = target: T1, Cdk-related protein kinase 6 (Plasmodium falciparum, UniProt O77239); assay: Final concentrations were 1.5 uM ATP, 5 mM MnCl2, and 15 ug/ml PK6 in a buffer of 100 mM Tris-HCl (pH 7.5). 50 ug/mL MBP was provided as the substrate; 10 uM staurosporine was used as a control inhibitor. Incubation time was 3 hours and 40 minutes.The catalytic activity of each kinase was considered proportional to ATP consumed, as determined from measurements of residual [ATP] with the luciferase-based reagent Kinase-Glo (Promega) following incubation. Luminescence (proportional to residual [ATP]) was measured on the plate readers FLx800 (BioTek Instruments, Winooski, VT, USA) and MicroBeta2.
T1 sequence (O77239 whole entry): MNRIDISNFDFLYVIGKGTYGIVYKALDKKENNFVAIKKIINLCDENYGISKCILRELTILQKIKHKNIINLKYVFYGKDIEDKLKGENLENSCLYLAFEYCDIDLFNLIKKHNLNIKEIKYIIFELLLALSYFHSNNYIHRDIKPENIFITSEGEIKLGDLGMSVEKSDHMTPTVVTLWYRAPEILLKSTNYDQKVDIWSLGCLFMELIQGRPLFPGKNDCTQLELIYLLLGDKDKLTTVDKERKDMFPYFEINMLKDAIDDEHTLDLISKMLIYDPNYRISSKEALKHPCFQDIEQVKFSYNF

[2] = target: T2, Putative uncharacterized protein pk7 (Plasmodium falciparum, UniProt O96214); assay: Final concentrations were 1 uM ATP, 2 mM DTT, 20 mM MgCl2, 2 mM MnCl2, 0.01% BSA, and 6 ug/ml PK7, in a buffer of 20 mM Tris-HCl (pH 7.5). The enzyme itself was the only substrate present (since autophosphorylation occurs); 100 uM 1NA-PP1 was used as a control inhibitor. Incubation time was 3 hours.
T2 sequence (O96214 whole entry): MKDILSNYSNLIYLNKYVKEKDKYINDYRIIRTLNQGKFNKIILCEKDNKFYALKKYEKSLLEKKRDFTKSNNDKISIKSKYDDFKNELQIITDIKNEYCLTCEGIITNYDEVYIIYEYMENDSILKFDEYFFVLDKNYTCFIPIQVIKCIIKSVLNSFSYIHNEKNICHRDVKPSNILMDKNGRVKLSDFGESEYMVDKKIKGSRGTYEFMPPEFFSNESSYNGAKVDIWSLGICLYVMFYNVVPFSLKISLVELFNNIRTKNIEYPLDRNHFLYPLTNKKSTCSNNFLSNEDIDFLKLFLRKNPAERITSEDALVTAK

[3] = target: T3, Mitogen-activated protein kinase (Plasmodium falciparum, UniProt Q25917); assay: Final concentrations were 1 uM ATP, 0.5 mM DTT, 1 mM MgCl2, 0.5 mg/mL BSA, and 10 ug/ml MAP2 in a buffer of 50 mM HEPES (pH 7.0). 0.5 mg/mL histone III-S served as the substrate (13); 100 uM AMP-PNP, an ATP analog, was used as a control inhibitor. Incubation time was 4 hours.
T3 sequence (Q25917 whole entry): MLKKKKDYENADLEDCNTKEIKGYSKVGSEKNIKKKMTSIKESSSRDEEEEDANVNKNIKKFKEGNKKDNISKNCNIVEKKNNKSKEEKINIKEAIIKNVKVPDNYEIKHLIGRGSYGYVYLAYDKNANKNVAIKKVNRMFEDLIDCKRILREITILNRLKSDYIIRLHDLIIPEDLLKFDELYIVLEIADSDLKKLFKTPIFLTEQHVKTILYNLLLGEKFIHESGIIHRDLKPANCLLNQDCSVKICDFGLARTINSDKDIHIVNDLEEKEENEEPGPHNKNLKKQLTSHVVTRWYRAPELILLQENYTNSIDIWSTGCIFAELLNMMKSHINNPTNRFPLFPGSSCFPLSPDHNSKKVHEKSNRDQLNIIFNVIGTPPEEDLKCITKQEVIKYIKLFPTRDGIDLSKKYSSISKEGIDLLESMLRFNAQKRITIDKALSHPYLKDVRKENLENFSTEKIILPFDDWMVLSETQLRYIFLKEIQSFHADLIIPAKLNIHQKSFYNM

[4] = target: Calcium-dependent protein kinase 1 (Plasmodium falciparum, UniProt P62344); assay: MMV: CDPK1 Protein kinase inhibition assay using recombinant PfCDPK1, syntide 2 peptide substrate, ATP and KinaseGlo to measure % inhibition at 1 uM MMV box compound.
[5] = target: T4, Calcium-dependent protein kinase 4 (Plasmodium falciparum (isolate 3D7), UniProt Q8IBS5); assay: MMV: CDPK4 Protein kinase inhibition assay using recombinant PfCDPK4, syntide2 peptide substrate, ATP and KinaseGlo to measure % inhibition at 1 uM MMV box compound.
T4 sequence (Q8IBS5 whole entry): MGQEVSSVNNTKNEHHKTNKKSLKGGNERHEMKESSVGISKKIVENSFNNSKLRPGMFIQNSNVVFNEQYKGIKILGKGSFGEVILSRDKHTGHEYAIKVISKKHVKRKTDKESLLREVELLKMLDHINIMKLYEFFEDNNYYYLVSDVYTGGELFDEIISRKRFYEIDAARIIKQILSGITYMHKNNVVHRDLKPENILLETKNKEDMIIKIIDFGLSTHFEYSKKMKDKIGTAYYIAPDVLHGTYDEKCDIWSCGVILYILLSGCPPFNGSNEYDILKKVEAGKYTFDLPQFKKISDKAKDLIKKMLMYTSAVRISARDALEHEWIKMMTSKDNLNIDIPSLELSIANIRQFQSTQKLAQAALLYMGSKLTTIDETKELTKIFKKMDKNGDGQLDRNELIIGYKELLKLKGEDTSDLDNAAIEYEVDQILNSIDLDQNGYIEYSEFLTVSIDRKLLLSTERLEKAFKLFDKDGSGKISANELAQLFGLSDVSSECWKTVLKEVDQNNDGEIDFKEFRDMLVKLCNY

Proline--tRNA ligase = target: T5, Proline--tRNA ligase (Plasmodium falciparum (isolate 3D7), UniProt Q8I5R7); assay: MMV: ProRS recombinant Plasmodium falciparum Prolyl-tRNA-synthetase, assay with yeast tRNA, ATP, and proline and 3 uM MMV malaria box compound, assay read out with kinase glo as % inhibition.
T5 sequence (Q8I5R7 whole entry): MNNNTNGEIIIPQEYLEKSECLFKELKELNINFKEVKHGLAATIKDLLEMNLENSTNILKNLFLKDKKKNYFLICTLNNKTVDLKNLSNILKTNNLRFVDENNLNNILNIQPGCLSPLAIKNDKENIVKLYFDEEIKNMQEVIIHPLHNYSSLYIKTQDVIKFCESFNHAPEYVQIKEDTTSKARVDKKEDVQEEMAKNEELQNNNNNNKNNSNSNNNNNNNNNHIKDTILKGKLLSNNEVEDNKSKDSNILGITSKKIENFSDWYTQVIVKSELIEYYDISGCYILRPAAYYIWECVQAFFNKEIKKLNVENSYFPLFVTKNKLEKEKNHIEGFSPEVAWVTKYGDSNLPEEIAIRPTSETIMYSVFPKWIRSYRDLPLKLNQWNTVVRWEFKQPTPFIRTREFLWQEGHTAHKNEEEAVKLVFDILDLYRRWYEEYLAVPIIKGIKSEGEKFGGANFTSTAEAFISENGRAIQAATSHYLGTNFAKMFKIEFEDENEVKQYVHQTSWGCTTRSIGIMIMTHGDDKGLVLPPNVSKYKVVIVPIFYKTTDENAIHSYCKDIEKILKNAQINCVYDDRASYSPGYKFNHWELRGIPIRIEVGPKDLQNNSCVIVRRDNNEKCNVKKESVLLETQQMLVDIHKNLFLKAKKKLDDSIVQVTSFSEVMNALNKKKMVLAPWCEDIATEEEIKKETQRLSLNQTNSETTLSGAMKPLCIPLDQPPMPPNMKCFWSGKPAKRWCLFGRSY

Lysine--tRNA ligase = Lysine--tRNA ligase (Plasmodium falciparum (isolate 3D7), UniProt Q8IDJ8); assay: MMV: KRS recombinant Plasmodium falciparum Lysyl-tRNA-synthetase, assay with yeast tRNA, ATP, and lysine and 3 uM MMV malaria box compound, assay read out with kinase glo as % inhibition.
Lysine--tRNA ligase, sequence (Q8IDJ8 whole entry): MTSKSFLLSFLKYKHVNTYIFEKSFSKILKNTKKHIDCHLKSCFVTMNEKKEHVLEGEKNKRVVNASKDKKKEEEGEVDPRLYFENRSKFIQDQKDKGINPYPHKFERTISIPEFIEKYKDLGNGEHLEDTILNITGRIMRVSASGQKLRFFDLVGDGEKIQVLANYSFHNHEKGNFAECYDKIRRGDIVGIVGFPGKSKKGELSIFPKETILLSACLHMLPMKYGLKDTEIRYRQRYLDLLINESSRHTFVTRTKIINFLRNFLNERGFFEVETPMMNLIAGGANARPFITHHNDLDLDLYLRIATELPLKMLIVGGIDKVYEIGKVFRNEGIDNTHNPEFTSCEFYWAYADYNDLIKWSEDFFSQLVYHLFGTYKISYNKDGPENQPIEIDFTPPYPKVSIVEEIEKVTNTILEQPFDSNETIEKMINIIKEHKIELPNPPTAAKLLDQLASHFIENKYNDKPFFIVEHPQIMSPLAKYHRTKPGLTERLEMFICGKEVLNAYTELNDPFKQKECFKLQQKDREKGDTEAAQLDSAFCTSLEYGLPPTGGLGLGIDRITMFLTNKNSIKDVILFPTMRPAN

Calcium-dependent protein kinase 1, sequence (P62344 whole entry): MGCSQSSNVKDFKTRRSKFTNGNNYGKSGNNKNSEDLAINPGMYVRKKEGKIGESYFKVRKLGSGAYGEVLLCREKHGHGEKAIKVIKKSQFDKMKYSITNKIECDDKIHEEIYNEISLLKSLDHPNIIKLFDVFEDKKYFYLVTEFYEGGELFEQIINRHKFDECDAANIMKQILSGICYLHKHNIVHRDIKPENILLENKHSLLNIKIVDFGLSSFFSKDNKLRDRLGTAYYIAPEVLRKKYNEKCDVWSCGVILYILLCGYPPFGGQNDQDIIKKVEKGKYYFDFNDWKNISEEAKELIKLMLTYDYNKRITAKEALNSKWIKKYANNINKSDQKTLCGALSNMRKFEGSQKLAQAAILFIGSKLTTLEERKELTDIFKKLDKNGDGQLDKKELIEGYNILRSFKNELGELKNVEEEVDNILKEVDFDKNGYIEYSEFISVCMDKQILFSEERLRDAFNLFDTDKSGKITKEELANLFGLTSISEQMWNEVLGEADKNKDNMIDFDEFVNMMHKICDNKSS

Compound | IC50 [1] [nM] | IC50 [2] [nM] | IC50 [3] [nM] | IC50 [4] [nM] | IC50 [5] [nM] | IC50 (Proline--tRNA ligase) [nM] | IC50 (Lysine--tRNA ligase) [nM]
Cc1cc(C)cc(Nc2cc(C)nc3nc(C(F)(F)F)nn23)c1 | > 1000 | > 1000 | > 1000 | > 1000 | > 1000 | > 2500 | > 2500
O=C(NCC(c1ccsc1)N1CCCCCC1)c1ccc(C(F)(F)F)cc1 (stereo not given) | > 1000 | > 1000 | > 1000 | > 1000 | > 1000 | > 2500 | > 2500
Cc1ccc(-c2cc3c(SCC(=O)Nc4cc(C(F)(F)F)ccc4Cl)nccn3n2)cc1 | > 1000 | > 1000 | > 1000 | > 1000 | > 1000 | > 2500 | > 2500
CCCCCC(=O)N1c2ccccc2N=C2CC(c3ccc(OC)c(OC)c3)CC(O)=C2C1c1ccc(C(F)(F)F)cc1 (stereo not given) | > 1000 | > 1000 | > 1000 | > 1000 | > 1000 | > 2500 | > 2500
Cc1cc(NCCN2CCCCC2)c2ccc3ccccc3c2n1 | > 1000 | > 1000 | > 1000 | > 1000 | > 1000 | > 2500 | > 2500
Cc1ccc(N2C(=O)C3C(C2=O)C2(c4ccccc4)C(=O)C3(c3ccccc3)C(c3ccccc3)=C2c2ccccc2)cc1 (stereo not given) | > 1000 | > 1000 | > 1000 | > 1000 | > 1000 | > 2500 | > 2500
CCc1c(C)c(=N)c2ccccc2n1C | > 1000 | > 1000 | > 1000 | > 1000 | > 1000 | > 2500 | > 2500
CCOC(=O)C1=C(c2ccccc2)N=c2sc(=Cc3cc(C)n(-c4ccc(F)cc4)c3C)c(=O)n2C1c1cccc(OC)c1OC (stereo not given) | > 1000 | > 1000 | > 1000 | > 1000 | > 1000 | > 2500 | > 2500
CCC1(C)CC(CCNCc2ccccc2O)(c2ccc(C)cc2)CCO1 (stereo not given) | > 1000 | > 1000 | > 1000 | > 1000 | > 1000 | > 2500 | > 2500
Cc1cc(Nc2ccc(C)c(Cl)c2)n2nc(C(F)(F)F)nc2n1 | > 1000 | > 1000 | > 1000 | > 1000 | > 1000 | > 2500 | > 2500
Fc1ccc2[nH]c3c(NCCCN4CCOCC4)ncnc3c2c1 | > 1000 | > 1000 | > 1000 | > 1000 | > 1000 | > 2500 | > 2500
Cc1cccc(Nc2nc(N)c3ccccc3n2)c1 | > 1000 | > 1000 | > 1000 | > 1000 | > 1000 | > 2500 | > 2500
CCn1c(CN2CCN(Cc3ccccc3)CC2)nc2cc(NC(=O)c3cccs3)ccc21 | > 1000 | > 1000 | > 1000 | > 1000 | > 1000 | > 2500 | > 2500
COc1cc(OC)c(N(C)C(=O)c2cc3c(s2)-c2ccccc2S(=O)(=O)C3)cc1Cl | > 1000 | > 1000 | > 1000 | > 1000 | > 1000 | > 2500 | > 2500
COc1ccccc1CNC(=O)CCn1c(=O)[nH]c2ccsc2c1=O | > 1000 | > 1000 | > 1000 | > 1000 | > 1000 | > 2500 | > 2500
COc1ccc(Br)cc1C1Nc2ccc3ccccc3c2C2=C1C(=O)CC(c1ccccc1)C2 (stereo not given) | > 1000 | > 1000 | > 1000 | > 1000 | > 1000 | > 2500 | > 2500
Cc1cc(C=C2SC(=Nc3ccccc3)N(C3CCCC3)C2=O)c(C)n1-c1ccc(Cl)cc1 | > 1000 | > 1000 | > 1000 | > 1000 | > 1000 | > 2500 | > 2500
CCc1ccc(Nc2cc(C)c3ccc(O)cc3n2)cc1 | > 1000 | > 1000 | > 1000 | > 1000 | > 1000 | > 2500 | > 2500
CCCc1c(CC)c(=N)c2ccccc2n1C | > 1000 | > 1000 | > 1000 | > 1000 | > 1000 | > 2500 | > 2500
CCOC(=O)c1cnc2c(C)cc(C)cc2c1Nc1ccc(OC)c(OC)c1 | > 1000 | > 1000 | > 1000 | > 1000 | > 1000 | > 2500 | > 2500

Source: ChEMBL document CHEMBL3301562, “MMV Box screening against Plasmodium falciparum protein kinases and aminoacyl tRNA synthetases”
